± gives the expanded uncertainty stated by the source.
Conditions: Crystal; DTA

- Normal melting temperature: 52.80 ± 0.5 °C
Structure (SMILES): O=C1C=CC(=O)O1 [maleic anhydride]
